The results in this text go back to publication PMC9488892 (Medicinal Chemistry Research, 2022).

pEC50: −log10 of the molar value.

The target in assay [1] is T1, melatonin type II (MT2) receptor (Homo sapiens, UniProt P49286).
T1 sequence (P49286 1-362): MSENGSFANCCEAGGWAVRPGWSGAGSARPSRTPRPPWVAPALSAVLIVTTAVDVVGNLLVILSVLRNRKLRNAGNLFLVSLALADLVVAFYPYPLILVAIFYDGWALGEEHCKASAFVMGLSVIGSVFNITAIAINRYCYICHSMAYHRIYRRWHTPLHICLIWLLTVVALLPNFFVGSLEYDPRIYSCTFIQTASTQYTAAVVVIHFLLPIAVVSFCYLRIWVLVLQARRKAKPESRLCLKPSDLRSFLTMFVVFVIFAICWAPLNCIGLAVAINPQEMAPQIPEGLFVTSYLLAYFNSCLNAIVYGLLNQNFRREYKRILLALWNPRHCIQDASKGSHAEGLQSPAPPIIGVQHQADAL
It counts as cell-based.

The target in assay [2] is melatonin type I (MT1) receptor (Homo sapiens, UniProt P48039). Type of assay: cell-based.
Chain of melatonin type I (MT1) receptor (P48039 whole entry): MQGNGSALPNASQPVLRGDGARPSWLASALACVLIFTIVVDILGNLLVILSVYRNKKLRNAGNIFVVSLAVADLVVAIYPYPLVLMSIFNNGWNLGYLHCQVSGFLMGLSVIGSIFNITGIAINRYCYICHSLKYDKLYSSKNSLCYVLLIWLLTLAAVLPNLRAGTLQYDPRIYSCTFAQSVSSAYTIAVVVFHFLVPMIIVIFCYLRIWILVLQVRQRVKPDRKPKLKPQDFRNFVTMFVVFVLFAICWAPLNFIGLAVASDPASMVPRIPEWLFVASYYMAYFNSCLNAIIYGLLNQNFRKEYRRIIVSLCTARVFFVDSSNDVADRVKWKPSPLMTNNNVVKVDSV

Regarding `Cc1cc2c(cc1O)[C@@H](C)[C@H]1Oc3cc(C)c(O)cc3[C@@]1(CN1CCN(C)CC1)O2` [compound 13, (5aS,10aR,11R)-3,8,11-trimethyl-5a-((4-methylpiperazin-1-yl)methyl)-5a,10a-dihydro-11H-benzofuro[3,2-b]chromene-2,7-diol], the results for the pEC50 in assay [1] and in assay [2] were 3.62 and 3.70, respectively.

A word on the pEC50: it is the EC50 on a negative log10 scale, so that one unit is a factor of ten.
